For 7 compounds, Activity results are on record in ChEMBL document CHEMBL2034902, “Simplified bicyclic pyridinol analogues protect mitochondrial function” (2012).

In assay [1] the test system is CCRF-CEM. In words: Cytoprotective activity against DEM-induced ROS production in human CEM cells assessed as prevention of loss of mitochondrial potential pretreated for 16 hrs prior DEM challenge measured after 120 mins by TMRM-based flow cytometry (reference value: 94%). In kind it is functional, cell-based.
For assay [2], the system named is CCRF-CEM. In words: Cytoprotective activity against DEM-induced ROS production in human CEM cells treated prior DEM challenge after 16 hrs by DCFH-DA-based flow cytometry relative to alpha-tocopherol. It counts as functional, cell-based.
Assay [3] concerns CCRF-CEM. In words: Cytoprotective activity against DEM-induced ROS production in human CEM cells assessed as reduction in lipid peroxidation at 2.5 to 5 uM treated prior DEM challenge measured after 16 hrs by C11-BODIPY581/591-based flow cytometry relative to alpha-tocopherol. It counts as functional, cell-based.
The test system of assay [4] is CCRF-CEM. In words: Cytoprotective activity against DEM-induced ROS production in human CEM cells at 1 to 5 uM pretreated for 16 hrs prior DEM challenge measured after 5.5 hrs by trypan blue exclusion method. It counts as functional, cell-based.
The test system of assay [5] is CCRF-CEM. In words: Cytoprotective activity against DEM-induced ROS production in human CEM cells assessed as cells with intact mitochondrial potential at 2.5 uM pretreated for 16 hrs prior DEM challenge measured after 120 mins by TMRM-based flow cytometry (reference value: 94%). In kind it is functional.
Assay [6] has as its system CCRF-CEM. In words: Cytoprotective activity against DEM-induced ROS production in human CEM cells assessed as cells with intact mitochondrial potential at 1 uM pretreated for 16 hrs prior DEM challenge measured after 120 mins by TMRM-based flow cytometry (reference value: 94%). In kind it is functional.

Calls of active or inactive are those of the source. The rule behind the calls is not given here.

As for `CCCCCCCCCCCCCCCCc1nc2c(c(C)c1OC(C)=O)CCN2C`, the Activity result was “Dose-dependent effect” with CCRF-CEM [1], 65% with CCRF-CEM [5] and 50% in the assay on CCRF-CEM [6]. For the same compound, the result in the assay on CCRF-CEM [2], with CCRF-CEM [3] and with CCRF-CEM [4] was Active.

With `CCCCCc1nc2c(c(C)c1OC(C)=O)CCN2C`, the figures for the Activity result with CCRF-CEM [1], in the assay with CCRF-CEM [5] and in the assay on CCRF-CEM [6] were “Dose-dependent effect”, 60% and 30%, respectively. Besides, the result in the assay on CCRF-CEM [2] and in the assay with CCRF-CEM [3] was inactive. The result in the assay with CCRF-CEM [4] was Active.

On to `CCCCCCCCCCc1nc2c(c(C)c1O)CCN2C.O=C(O)C(F)(F)F`, for which the Activity result in the assay on CCRF-CEM [1] was “Dose-dependent effect”; in the assay on CCRF-CEM [2], “Dose-dependent effect”; with CCRF-CEM [5] it was 84%; with CCRF-CEM [6], 80%. For the same compound, the outcome with CCRF-CEM [3] and with CCRF-CEM [4] was Active.

For the compound `CCCCCCCCCCc1nc2c(c(C)c1OC(C)=O)CCN2C`, the Activity entry in the assay with CCRF-CEM [1] is “Dose-dependent effect”; in the assay on CCRF-CEM [2], “Dose-dependent effect”; in the assay on CCRF-CEM [5], 82%; in the assay with CCRF-CEM [6] it was 75%. Moreover, the result in the assay on CCRF-CEM [3] and with CCRF-CEM [4] was Active.

As to `Cc1c(C)c2c(c(C)c1O)CC[C@@](C)(CCC[C@H](C)CCC[C@H](C)CCCC(C)C)O2`, the outcome in the assay with CCRF-CEM [2], with CCRF-CEM [3] and with CCRF-CEM [4] was Active.

For `CCCCCCCCCCCCCCCCc1nc2c(c(C)c1O)CCN2C.O=C(O)C(F)(F)F`, the Activity entry in the assay with CCRF-CEM [1] was “Dose-dependent effect”; with CCRF-CEM [5], 70%; in the assay with CCRF-CEM [6], 46%. Besides, the result with CCRF-CEM [2] and in the assay with CCRF-CEM [3] was Active. Also, the result with CCRF-CEM [4] was inactive.

`CCCCCc1nc2c(c(C)c1O)CCN2C.O=C(O)C(F)(F)F`: the figures for the Activity result in the assay with CCRF-CEM [1], in the assay on CCRF-CEM [5] and in the assay on CCRF-CEM [6] were “Dose-dependent effect”, 63% and 40%, respectively. Moreover, the result with CCRF-CEM [2] and in the assay on CCRF-CEM [3] was inactive. Besides, in the assay on CCRF-CEM [4], the outcome was Active.
